In PubChem BioAssay AID330 (DTP/NCI, 2004):
“And” between values parts separate entries of the source, which are not always exact repeats. Identical values can stand only once. Inconclusive results and toxic doses are left out.

System: P388 leukemia ip, CD2F1 mice, survival T/C
Assay: NCI In Vivo Anticancer Drug Screen. Data for tumor model P388 Leukemia (intraperitoneal) in CD2F1 (CDF1) mice
Details: endpoint: median survival time, higher = longer survival
Procedure, shortened: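 Mice carrying the transplanted tumor received test compound or vehicle. Survival was recorded in each group, and the value is the treated-group measurement divided by that of the vehicle-treated control group.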

[1] = dose: 12.5 mg/kg/injection, schedule: Q01DX005 (ip), vehicle: Klucel (hydroxypropylcellulose) (HPC)
[2] = dose: 25.0 mg/kg/injection, schedule: Q01DX005 (ip), vehicle: Klucel (hydroxypropylcellulose) (HPC)
[3] = dose: 50.0 mg/kg/injection, schedule: Q01DX005 (ip), vehicle: Klucel (hydroxypropylcellulose) (HPC)
[4] = dose: 25.0 mg/kg/injection, schedule: Q01DX009 (ip), vehicle: saline with Tween-80
[5] = dose: 50.0 mg/kg/injection, schedule: Q01DX009 (ip), vehicle: saline with Tween-80
[6] = dose: 100.0 mg/kg/injection, schedule: Q01DX009 (ip), vehicle: saline with Tween-80
[7] = dose: 60.0 mg/kg/injection, schedule: Q01DX005 (ip), vehicle: saline with Tween-80
[8] = dose: 120.0 mg/kg/injection, schedule: Q01DX005 (ip), vehicle: saline with Tween-80
[9] = dose: 240.0 mg/kg/injection, schedule: Q01DX005 (ip), vehicle: saline with Tween-80
[10] = dose: 100.0 mg/kg/injection, schedule: Q01DX005 (ip), vehicle: Klucel (hydroxypropylcellulose) (HPC)
[11] = dose: 200.0 mg/kg/injection, schedule: Q01DX005 (ip), vehicle: Klucel (hydroxypropylcellulose) (HPC)
[12] = dose: 50.0 mg/kg/injection, schedule: Q01DX009 (ip), vehicle: Klucel (hydroxypropylcellulose) (HPC)

O=C(OCC1OC(n2cc(C(F)(F)F)c(=O)[nH]c2=O)CC1O)c1ccc([N+](=O)[O-])cc1 (stereo not given)
T/C (dose: 6.25 mg/kg/injection, schedule: Q01DX005 (ip), vehicle: Klucel (hydroxypropylcellulose) (HPC)): 110 % of control
T/C [1]: 110 % of control
T/C [2]: 115 % of control
T/C [3]: 161 % of control

O=c1[nH]c2ccccc2nc1Cl
T/C [4]: 100 % of control
T/C [5]: 98 % of control
T/C [6]: 97 % of control

Nc1nc2c(nc(OCc3ccccc3)n2C2OC(CO)C(O)C2O)c(=O)n1N (stereo not given)
T/C [7]: 104 % of control
T/C [8]: 96 % of control
T/C [9]: 100 % of control

C=COC(=O)N(C)C
T/C (dose: 25.0 mg/kg/injection, schedule: Q01DX009 (ip), vehicle: saline): 110 % of control
T/C (dose: 50.0 mg/kg/injection, schedule: Q01DX009 (ip), vehicle: saline): 118 % of control
T/C (dose: 100.0 mg/kg/injection, schedule: Q01DX009 (ip), vehicle: saline): 115 % of control
T/C (dose: 200.0 mg/kg/injection, schedule: Q01DX009 (ip), vehicle: saline): 120 % of control

[I][Pt+2][I].[NH-]C1CCCC1[NH-] (stereo not given)
T/C (dose: 100.0 mg/kg/injection, schedule: Q04DX002 (ip), vehicle: saline with Tween-80): 166 % of control

C=C1C2(CN)CCC(C2)C1(C)C (stereo not given)
T/C (dose: 6.25 mg/kg/injection, schedule: Q01DX009 (ip), vehicle: saline with Tween-80): 101 % of control
T/C (dose: 12.5 mg/kg/injection, schedule: Q01DX001 (ip), vehicle: saline with Tween-80): 96 % of control
T/C (dose: 12.5 mg/kg/injection, schedule: Q01DX009 (ip), vehicle: saline with Tween-80): 98 % of control
T/C (dose: 25.0 mg/kg/injection, schedule: Q01DX001 (ip), vehicle: saline with Tween-80): 101 % of control
T/C [4]: 98 % of control
T/C (dose: 50.0 mg/kg/injection, schedule: Q01DX001 (ip), vehicle: saline with Tween-80): 99 % of control

COc1c(Cl)cc2c(c1OC)N(C)C1N3C(=O)C4(C)SSC3(C(=O)N4C)C(O)C21O (stereo not given)
T/C (dose: 0.03 mg/kg/injection, schedule: Q01DX009 (ip), vehicle: Klucel (hydroxypropylcellulose) (HPC)): 100 % of control and 118 % of control
T/C (dose: 0.06 mg/kg/injection, schedule: Q01DX009 (ip), vehicle: Klucel (hydroxypropylcellulose) (HPC)): 89 % of control
T/C (dose: 0.13 mg/kg/injection, schedule: Q01DX009 (ip), vehicle: Klucel (hydroxypropylcellulose) (HPC)): 96 % of control
T/C (dose: 0.5 mg/kg/injection, schedule: Q01DX009 (ip), vehicle: Klucel (hydroxypropylcellulose) (HPC)): 94 % of control

CNC(=O)Oc1cc(C)c[n+]([O-])c1
T/C (dose: 50.0 mg/kg/injection, schedule: Q01DX005 (ip), vehicle: saline): 100 % of control
T/C (dose: 100.0 mg/kg/injection, schedule: Q01DX005 (ip), vehicle: saline): 104 % of control
T/C (dose: 200.0 mg/kg/injection, schedule: Q01DX005 (ip), vehicle: saline): 104 % of control

CC(C)(C)[Si](C)(C)OC[C@@H]1OC=CC(=O)[C@H]1O
T/C [3]: 102 % of control
T/C [10]: 94 % of control
T/C [11]: 101 % of control

CCCCCC12OCC(C)(C)N1O2 (stereo not given)
T/C (dose: 60.0 mg/kg/injection, schedule: Q01DX005 (ip), vehicle: saline): 100 % of control
T/C (dose: 120.0 mg/kg/injection, schedule: Q01DX005 (ip), vehicle: saline): 109 % of control
T/C (dose: 240.0 mg/kg/injection, schedule: Q01DX005 (ip), vehicle: saline): 103 % of control

COc1cc(/C=N/O)c(SC)cc1OC
T/C (dose: 100.0 mg/kg/injection, schedule: Q04DX002 (ip), vehicle: Klucel (hydroxypropylcellulose) (HPC)): 110 % of control
T/C (dose: 200.0 mg/kg/injection, schedule: Q04DX002 (ip), vehicle: Klucel (hydroxypropylcellulose) (HPC)): 111 % of control

Cc1ccc(C=C2c3ccccc3C(=O)c3ccccc32)cc1
T/C [3]: 108 % of control
T/C [10]: 107 % of control
T/C [11]: 105 % of control

CC(C)(Oc1ccc(Cl)cc1)C(=O)NC1CC(C)(C)N(O)C(C)(C)C1
T/C [7]: 104 % of control
T/C [8]: 96 % of control
T/C [9]: 91 % of control

O=C1OCC=C1Sc1ccccc1
T/C [7]: 106 % of control
T/C [8]: 108 % of control

CC1C2=C(CC(=O)NC2=O)C(=O)N1Cc1ccccc1 (stereo not given)
T/C [12]: 103 % of control
T/C (dose: 100.0 mg/kg/injection, schedule: Q01DX009 (ip), vehicle: Klucel (hydroxypropylcellulose) (HPC)): 106 % of control
T/C (dose: 200.0 mg/kg/injection, schedule: Q01DX009 (ip), vehicle: Klucel (hydroxypropylcellulose) (HPC)): 97 % of control

O=NNc1ccc(F)cn1
T/C (dose: 3.12 mg/kg/injection, schedule: Q01DX009 (ip), vehicle: water): 117 % of control
T/C (dose: 12.5 mg/kg/injection, schedule: Q01DX009 (ip), vehicle: water): 153 % of control
T/C (dose: 25.0 mg/kg/injection, schedule: Q01DX009 (ip), vehicle: water): 162 % of control and 166 % of control
T/C (dose: 50.0 mg/kg/injection, schedule: Q01DX009 (ip), vehicle: water): 99 % of control

CCN(CC)c1cc(Cl)ccc1Cl
T/C [4]: 104 % of control
T/C [5]: 104 % of control
T/C [6]: 100 % of control

CC(C)CC(NC(=O)C(Cc1cnc[nH]1)N(C(=O)OCc1ccccc1)C(=O)OCc1ccccc1)C(=O)NN (stereo not given)
T/C (dose: 50.0 mg/kg/injection, schedule: Q01DX005 (ip), vehicle: saline with Tween-80): 101 % of control
T/C (dose: 100.0 mg/kg/injection, schedule: Q01DX005 (ip), vehicle: saline with Tween-80): 106 % of control
T/C (dose: 200.0 mg/kg/injection, schedule: Q01DX005 (ip), vehicle: saline with Tween-80): 106 % of control

CCCCCCCCCCCCCCCCCCOC(=O)Cc1ccc(N(CCCl)CCCl)cc1
T/C (dose: 45.0 mg/kg/injection, schedule: Q01DX009 (ip), vehicle: saline with Tween-80): 168 % of control
T/C (dose: 90.0 mg/kg/injection, schedule: Q01DX009 (ip), vehicle: saline with Tween-80): 163 % of control
T/C (dose: 180.0 mg/kg/injection, schedule: Q01DX009 (ip), vehicle: saline with Tween-80): 150 % of control

CC(=O)OCCn1c2ccccc2nc2cc3c(cc21)c(Cl)c(=O)c1ccccc13
T/C (dose: 50.0 mg/kg/injection, schedule: Q04DX003 (ip), vehicle: saline with Tween-80): 96 % of control
T/C (dose: 100.0 mg/kg/injection, schedule: Q04DX003 (ip), vehicle: saline with Tween-80): 100 % of control
T/C (dose: 200.0 mg/kg/injection, schedule: Q04DX003 (ip), vehicle: saline with Tween-80): 100 % of control

CN(CCOc1c(I)cc(I)cc1I)CC(O)C(O)C(O)C(O)CO (stereo not given)
T/C (dose: 50.0 mg/kg/injection, schedule: Q01DX001 (ip), vehicle: Klucel (hydroxypropylcellulose) (HPC)): 110 % of control
T/C [12]: 94 % of control
T/C (dose: 100.0 mg/kg/injection, schedule: Q01DX001 (ip), vehicle: Klucel (hydroxypropylcellulose) (HPC)): 108 % of control
T/C (dose: 200.0 mg/kg/injection, schedule: Q01DX001 (ip), vehicle: Klucel (hydroxypropylcellulose) (HPC)): 109 % of control

Cc1c(C)c(C)c(C(=O)c2ccccc2C(=O)NCCSC(C)(C)C)c(C)c1C
T/C (dose: 30.0 mg/kg/injection, schedule: Q01DX005 (ip), vehicle: Klucel (hydroxypropylcellulose) (HPC)): 98 % of control
T/C (dose: 60.0 mg/kg/injection, schedule: Q01DX005 (ip), vehicle: Klucel (hydroxypropylcellulose) (HPC)): 93 % of control and 96 % of control
T/C (dose: 120.0 mg/kg/injection, schedule: Q01DX005 (ip), vehicle: Klucel (hydroxypropylcellulose) (HPC)): 92 % of control
T/C (dose: 240.0 mg/kg/injection, schedule: Q01DX005 (ip), vehicle: Klucel (hydroxypropylcellulose) (HPC)): 87 % of control

O=C(N/N=C/c1cc(Cl)cc(Cl)c1[O-])c1ccccc1.O=C(N/N=C/c1cc(Cl)cc(Cl)c1[O-])c1ccccc1.[Ni+2]
T/C (dose: 100.0 mg/kg/injection, schedule: Q01DX001 (ip), vehicle: saline with Tween-80): 93 % of control
T/C (dose: 200.0 mg/kg/injection, schedule: Q01DX001 (ip), vehicle: saline with Tween-80): 92 % of control
T/C (dose: 400.0 mg/kg/injection, schedule: Q01DX001 (ip), vehicle: saline with Tween-80): 107 % of control

C/C=C1/CN2CCc3c([nH]c4ccccc34)C2CC1C(Cc1c[n+]2c(c3[nH]c4ccccc4c13)CC1C(C(=O)OC)=COC(C)C1C2)C(=O)OC (stereo not given)
T/C [4]: 91 % of control
T/C [5]: 89 % of control
T/C [6]: 90 % of control

CSC(=S)n1nc(-c2cccs2)c(N=Nc2ccc(Cl)cc2)c1C(F)(F)F
T/C [7]: 92 % of control
T/C [8]: 100 % of control
T/C [9]: 111 % of control

O=C1SCCC1CO (stereo not given)
T/C (dose: 25.0 mg/kg/injection, schedule: Q04DX003 (ip), vehicle: saline): 100 % of control
T/C (dose: 50.0 mg/kg/injection, schedule: Q04DX003 (ip), vehicle: saline): 106 % of control

CN(CCCCC1CCCN(C(=O)c2ccccc2)C1)C(=O)c1ccccc1 (stereo not given)
T/C [1]: 96 % of control
T/C [2]: 94 % of control
T/C [3]: 103 % of control and 97 % of control
